Measurements: PubChem BioAssay AID588512 (NMMLSC, 2011)
Calls of active or inactive are those of the source.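 Rule for the calls: active = viability below 80%, counted as toxic; inactive = the rest.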

These compounds were tested on HEK-293 viability, CellTiter-Glo ATP luminescence, 3 days (assay: viability loss in HEK-293 cells – cell-based, powder set 1, cytotoxicity control for GRK2 aptamer-displacement inhibitor project, late-stage follow-up (AID 588512)). Settings: at 20 µM; hits give low values.
For `O=C(O)C1CC(=O)N(c2ccc3c(c2)OCCO3)C1` (stereo not given), the viability was 133% (inactive).
Work on `Cc1cc(=O)[nH]c(SCC(=O)NCc2ccco2)n1` yielded a viability of 69.3%.
`O=C(CCS(=O)(=O)c1ccc(Br)cc1)Nc1cc(F)ccc1F` was tested, and the viability was 110% (inactive).
`Cc1cc2ccccc2n1CCNC(=O)c1cccs1` was tested, and the viability was 109% (inactive).
With `Cc1cccc(N2CCN(C(=O)CCS(=O)(=O)c3ccc(Br)cc3)CC2C)c1` (stereo not given) the viability was 113% (inactive).
For `COc1ccc(CNC(=O)CCS(=O)(=O)c2ccc(Br)cc2)cc1`, the viability was 95.2% (inactive).
In the case of `CCc1ccccc1NC(=O)CCS(=O)(=O)c1ccc(Br)cc1`, the viability is reported as 82.6% (inactive).
`O=C(CCS(=O)(=O)c1ccc(Br)cc1)NCCc1ccc(Cl)cc1` was tested, and the viability was 124% (inactive).
With `Cc1ccccc1NC(=O)CCS(=O)(=O)c1ccc(Br)cc1` the viability was 128% (inactive).
In the case of `CCOc1ccc(CCNC(=O)CCS(=O)(=O)c2ccc(Br)cc2)cc1OCC`, the viability is reported as 123% (inactive).
